Assay results published in paper PMC6429297, “Novel 8-Substituted Coumarins That Selectively Inhibit Human Carbonic Anhydrase IX and XII” (International Journal of Molecular Sciences, 2019).
pKi: −log10 of the molar value. Like-named read-outs stand apart in the source and are kept apart here.

Tests used:
hCA I = hCA I (Homo sapiens, UniProt P00915); assay: stopped-flow CO2 hydrase assay, hCA I
Method: (§1) An Applied Photophysics stopped-flow instrument has been used for assaying the CA catalyzed CO2 hydration activity [24]. […] The uncatalyzed rates were determined in the same manner and subtracted from the total observed rates. Stock solutions of inhibitor (0.1 mM) were prepared in distilled-deionized water and dilutions up to 0.005 nM were done thereafter with the assay buffer. Inhibitor and enzyme solutions were preincubated together for 6 hours at room temperature prior to assay, in order to allow for the formation of the E-I complex. The inhibition constants were obtained by nonlinear least-squares methods using PRISM 3 (GraphPad Software, San Diego, CA, USA) and the Cheng–Prusoff equation, as reported by Maresca et al. [14], and represent the mean from at least three different determinations. All CA isoforms were recombinant ones obtained in-house.

hCA II = hCA II (Homo sapiens, UniProt P00918); assay: stopped-flow CO2 hydrase assay, hCA II
Method: as §1

hCA IX = hCA IX (Homo sapiens, UniProt Q16790); assay: stopped-flow CO2 hydrase assay, hCA IX; details: recombinant hCA IX, 6 h preincubation, mean from three assays, errors ±5–10%
Method: as §1

hCA XII = hCA XII (Homo sapiens, UniProt O43570); assay: stopped-flow CO2 hydrase assay, hCA XII
Method: as §1

[1] = set-up: method as in PMID 20024932; details: hepatotoxic effect of coumarin; cited from earlier work

Chain of hCA XII (O43570 25-354): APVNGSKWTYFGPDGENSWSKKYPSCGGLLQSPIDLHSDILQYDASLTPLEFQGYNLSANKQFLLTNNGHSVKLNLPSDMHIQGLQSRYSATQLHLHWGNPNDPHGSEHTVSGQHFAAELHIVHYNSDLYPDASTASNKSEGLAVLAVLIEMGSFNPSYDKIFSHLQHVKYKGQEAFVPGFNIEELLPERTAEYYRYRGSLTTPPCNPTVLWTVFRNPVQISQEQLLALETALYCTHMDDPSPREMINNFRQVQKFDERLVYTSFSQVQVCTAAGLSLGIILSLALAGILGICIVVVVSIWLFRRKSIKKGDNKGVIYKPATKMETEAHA
Chain of hCA I (P00915 whole entry): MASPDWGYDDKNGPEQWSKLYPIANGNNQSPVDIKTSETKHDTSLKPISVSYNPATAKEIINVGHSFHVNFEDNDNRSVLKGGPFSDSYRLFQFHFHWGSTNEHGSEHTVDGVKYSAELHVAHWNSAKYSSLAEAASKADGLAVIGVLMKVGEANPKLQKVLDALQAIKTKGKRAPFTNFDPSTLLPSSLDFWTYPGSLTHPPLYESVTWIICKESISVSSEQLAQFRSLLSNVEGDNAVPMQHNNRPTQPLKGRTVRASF

Row | Structure (SMILES) | pKi (hCA I) | pKi (hCA II) | Ki (hCA IX; Ki (nM) hCA IX) | pKi (hCA XII) | Ki (hCA IX; read-out: Ki (nM) hCA IX) | tolerable daily intake [1]
1 | Cc1cc(=O)oc2c(CN3CCN(c4ccc(Cl)cc4)CC3)c(O)ccc12 [Compound 8, 8-[4-(4-Chlorophenyl)piperazin-1-ylmethyl]-7-hydroxy-4-methylchromen-2-one] | < 5.00 | < 5.00 | 190 nM | 8.05 |  | 
2 | Cc1cc(=O)oc2c(CN3CCN(c4ccc(F)cc4)CC3)c(O)ccc12 [Compound 9, 8-[(4-(4-Fluorophenyl)piperazin-1-yl)methyl]-7-hydroxy-4-methylchromen-2-one] | < 5.00 | < 5.00 | 92.8 nM | 8.09 |  | 
3 | Cc1ccc(N2CCN(Cc3c(O)ccc4c(C)cc(=O)oc34)CC2)cc1 [Compound 11, 7-Hydroxy-4-methyl-8-(4-p-tolyl-piperazin-1-ylmethyl)chromen-2-one] | < 5.00 | < 5.00 | 308 nM | 8.02 |  | 
4 | Cc1cc(=O)oc2c(CN3CCN(c4ccccc4)CC3)c(O)ccc12 [Compound 7, 7-Hydroxy-4-methyl-8-(4-phenylpiperazin-1-ylmethyl)chromen-2-one] | < 5.00 | < 5.00 | 115 nM | 8.11 |  | 
5 | Cc1cc(=O)oc2c(CN3CCN(c4ccc(Br)cc4)CC3)c(O)ccc12 [Compound 10, 7-Hydroxy-8-[4-(bromophenyl)-piperazin-1-ylmethyl]-4-methylchromen-2-one] | < 5.00 | < 5.00 | 162 nM | 8.03 |  | 
6 | Cc1cc(=O)oc2c(CN3CCN(Cc4c(O)ccc5c(C)cc(=O)oc45)CC3)c(O)ccc12 [Compound 2, 1,4-bis[(7-Hydroxy-4-methylcoumarin-8-yl)methyl] piperazine] | < 5.00 | < 5.00 | 67.5 nM | 8.07 |  | 
7 | O=c1ccc2ccccc2o1 [coumarin] |  |  |  |  |  | 0.1 mg/kg body weight
8 | Cc1cc(=O)oc2c(CN3CCN(c4ccccc4F)CC3)c(O)ccc12 [Compound 12, 8-[4-(2-Fluorophenyl)piperazin-1-ylmethyl]-7-hydroxy-4-methylchromen-2-one] | < 5.00 | < 5.00 | 121 nM | 7.58 |  | 
9 | Cc1cc(=O)oc2c(CN3CCN(Cc4ccc5c(c4)OCO5)CC3)c(O)ccc12 [Compound 13, 8-(4-Benzo[1,3]dioxol-5-ylmethyl-piperazin-1-ylmethyl)-7-hydroxy-4-methyl-chromen-2-one] | < 5.00 | < 5.00 | 76.8 nM | 8.07 |  | 
10 | Cc1cc(=O)oc2cc(O)ccc12 [Compound 1, 7-Hydroxy-4-methylchromen-2-one] | < 5.00 | < 5.00 | 32.1 nM | 8.24 |  | 

More lines, main results first:

Row | pKi (hCA I) | pKi (hCA II) | Ki (hCA IX; Ki (nM) hCA IX) | pKi (hCA XII) | Ki (hCA IX; read-out: Ki (nM) hCA IX) | Structure (SMILES) | tolerable daily intake [1]
11 | < 5.00 | < 5.00 |  | 8.25 | 27.1 nM | C=CCN1CCN(Cc2c(O)ccc3c(C)cc(=O)oc23)CC1 [Compound 6, 8-(4-Allylpiperazin-1-ylmethyl)-7-hydroxy-4-methylchromen-2-one] | 
12 | < 5.00 | < 5.00 | 32 nM | 8.19 |  | CCN1CCN(Cc2c(O)ccc3c(C)cc(=O)oc23)CC1 [Compound 4, 8-(4-Ethylpiperazin-1-ylmethyl)-7-hydroxy-4-methylchromen-2-one] | 
13 | < 5.00 | < 5.00 | 295 nM | 8.15 |  | Cc1cc(=O)oc2c(CN3CCN(CCO)CC3)c(O)ccc12 [Compound 5, 7-Hydroxy-8-[4-(2-hydroxyethyl)piperazin-1-ylmethyl]-4-methylchromen-2-one] | 
14 | < 5.00 | < 5.00 | 88.7 nM | 8.02 |  | Cc1cc(=O)oc2c(CN3CCN(C)CC3)c(O)ccc12 [Compound 3, 7-Hydroxy-4-methyl-8-(4-methylpiperazin-1-ylmethyl)chromen-2-one] | 
